Results as given in patent US20260092057A1, “BCL-XL/BCL-2 DEGRADERS AND USES THEREOF” (Kymera Therapeutics, Inc., priority 2022, published 2026).
Where two headings read alike, the source gives them in different places.

What was measured:
Type in all cases: cell-based
BCL-XL = target: T1, BCL-XL (Homo sapiens, UniProt Q07817); experiment: BCL-XL degradation assay in MOLT-4 cells (ELISA, 6 h); conditions: for DC50: read-out: Bcl-xL ELISA in MOLT-4 degradation 6 h: External Abs-DC50
T1 construct: BCL-XL degradation results in MOLT-4 cells for compounds of the invention; endogenous in cells; host or cells: MOLT-4

Caki-2 cells = experiment: CTG (CellTiter-Glo) cell viability assay, Caki-2; conditions: Caki-2, 3-day, read-out: CTG Chempartner/PHA- Caki-2 3-day: Average external-IC50
How it was run: (§1)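 Cells seeded at 10,000 per well, then exposed to a 9-point 1:3 dilution series from 10 µM top concentration (0.2% DMSO) for 3 days at 37 °C, 5% CO2. Viability measured by CellTiter-Glo luminescence; IC50 from a three-parameter logistic fit.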

MOLT-4 cells = experiment: CTG (CellTiter-Glo) cell viability assay, MOLT-4; conditions: MOLT-4, 3 day, read-out: CTG Cell Viability Assay - MOLT-4 3 day: Average external-IC50
How it was run: as §1

T1 sequence (Q07817 whole entry): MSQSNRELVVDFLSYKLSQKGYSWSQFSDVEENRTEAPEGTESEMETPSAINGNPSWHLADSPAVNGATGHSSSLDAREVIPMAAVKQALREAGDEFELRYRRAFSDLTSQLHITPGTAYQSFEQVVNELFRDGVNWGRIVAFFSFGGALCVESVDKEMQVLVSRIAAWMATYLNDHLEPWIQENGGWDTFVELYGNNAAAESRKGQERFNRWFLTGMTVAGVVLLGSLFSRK

SMILES	Dmax (BCL-XL) [%]	DC50 (BCL-XL) [nM]	IC50 (MOLT-4 cells; Homo sapiens, MOLT-4, 72 h) [nM]	Bcl-xL ELISA in MOLT-4 degradation 6 h: Dmax % (BCL-XL)	IC50 (MOLT-4 cells) [nM]	IC50 (Caki-2 cells; Homo sapiens, CAKI-2, 72 h) [nM]	IC50 (Caki-2 cells) [nM]
Cc1ncsc1-c1ccc([C@H](C)NC(=O)[C@@H]2C[C@@H](O)CN2C(=O)[C@@H](NC(=O)CCCCCCN(C)CC[C@H](CSc2ccccc2)Nc2ccc(S(=O)(=O)NC(=O)c3ccc(N4CCC([C@@H](O)c5ccccc5-c5ccc(Cl)cc5)CC4)cc3)cc2S(=O)(=O)C(F)(F)F)C(C)(C)C)cc1 [I-108]	50 to 75	10 to 100	< 100			> 30000	
Cc1ncsc1-c1ccc([C@H](C)NC(=O)[C@@H]2C[C@@H](O)CN2C(=O)[C@@H](NC(=O)CCCCC(=O)N2CCN(CC[C@H](CSc3ccccc3)Nc3ccc(S(=O)(=O)NC(=O)c4ccc(N5CCC([C@@H](O)c6ccccc6-c6ccc(Cl)cc6)CC5)cc4)cc3S(=O)(=O)C(F)(F)F)CC2)C(C)(C)C)cc1 [I-109]	> 75	10 to 100	100 to 1000			> 30000	
Cc1ncsc1-c1ccc([C@H](C)NC(=O)[C@@H]2C[C@@H](O)CN2C(=O)[C@@H](NC(=O)CCCCCCN2CCN(CC[C@H](CSc3ccccc3)Nc3ccc(S(=O)(=O)NC(=O)c4ccc(N5CCC([C@@H](O)c6ccccc6-c6ccc(Cl)cc6)CC5)cc4)cc3S(=O)(=O)C(F)(F)F)CC2)C(C)(C)C)cc1 [I-118]	> 75	10 to 100	100 to 1000			> 30000	
Cc1ncsc1-c1ccc([C@H](C)NC(=O)[C@@H]2C[C@@H](O)CN2C(=O)[C@@H](NC(=O)CCCCCC(=O)N2CCCN(CC[C@H](CSc3ccccc3)Nc3ccc(S(=O)(=O)NC(=O)c4ccc(N5CCN([C@@H](O)c6ccccc6-c6ccc(Cl)cc6)CC5)cc4)cc3S(=O)(=O)C(F)(F)F)CC2)C(C)(C)C)cc1 [I-124]	50 to 75	< 10	< 100			10000 to 30000	
Cc1ncsc1-c1ccc(CNC(=O)[C@@H]2C[C@@H](O)CN2C(=O)[C@@H](NC(=O)CCCCCC(=O)N2CC3(CN(CC[C@H](CSc4ccccc4)Nc4ccc(S(=O)(=O)NC(=O)c5ccc(N6CCN([C@@H](O)c7ccccc7-c7ccc(Cl)cc7)CC6)cc5)cc4S(=O)(=O)C(F)(F)F)C3)C2)C(C)(C)C)cc1 [I-125]	50 to 75	10 to 100	100 to 1000			> 30000	
Cc1ncsc1-c1ccc([C@H](C)NC(=O)[C@@H]2C[C@@H](O)CN2C(=O)[C@@H](NC(=O)CCCCC(=O)N2CCC3(CCN(CC[C@H](CSc4ccccc4)Nc4ccc(S(=O)(=O)NC(=O)c5ccc(N6CCN([C@@H](O)c7ccccc7-c7ccc(Cl)cc7)CC6)cc5)cc4S(=O)(=O)C(F)(F)F)CC3)CC2)C(C)(C)C)cc1 [I-126]	50 to 75	10 to 100	< 100			< 5000	
Cc1ncsc1-c1ccc([C@H](C)NC(=O)[C@@H]2C[C@@H](O)CN2C(=O)[C@@H](NC(=O)CCCCCC(=O)N2CCC(NCC[C@H](CSc3ccccc3)Nc3ccc(S(=O)(=O)NC(=O)c4ccc(N5CCN([C@@H](O)c6ccccc6-c6ccc(Cl)cc6)CC5)cc4)cc3S(=O)(=O)C(F)(F)F)CC2)C(C)(C)C)cc1 [I-127]	50 to 75	500 to 1000	> 3000			> 30000	
C#Cc1ccc([C@H](CO)NC(=O)[C@@H]2C[C@@H](O)CN2C(=O)[C@@H](NC(=O)CCCCCC(=O)N2CCN(CC[C@H](CSc3ccccc3)Nc3ccc(S(=O)(=O)NC(=O)c4ccc(N5CCN([C@@H](O)c6ccccc6-c6ccc(Cl)cc6)CC5)cc4)cc3S(=O)(=O)C(F)(F)F)CC2)C(C)(C)C)cc1 [I-135]	> 75	10 to 100	< 100			10000 to 30000	

Continued, in another order:

Dmax (BCL-XL) [%]	DC50 (BCL-XL) [nM]	IC50 (MOLT-4 cells; Homo sapiens, MOLT-4, 72 h) [nM]	Bcl-xL ELISA in MOLT-4 degradation 6 h: Dmax % (BCL-XL)	IC50 (MOLT-4 cells) [nM]	SMILES	IC50 (Caki-2 cells; Homo sapiens, CAKI-2, 72 h) [nM]	IC50 (Caki-2 cells) [nM]
50 to 75	10 to 100	100 to 1000			Cc1ncsc1-c1ccc([C@H](C)NC(=O)[C@@H]2C[C@@H](O)CN2C(=O)[C@@H](NC(=O)CCCCCCCC(=O)N2CCN(CCCNc3ccc(S(=O)(=O)NC(=O)c4ccc(N5CCN(CC6=C(c7ccc(Cl)cc7)CC(C)(C)CC6)CC5)cc4Oc4cnc5[nH]ccc5c4)cc3S(=O)(=O)C(F)(F)F)CC2)C(C)(C)C)cc1 [I-86]	> 30000	
> 75	< 10	< 100			C#Cc1ccc([C@H](CO)NC(=O)[C@@H]2C[C@@H](O)CN2C(=O)[C@@H](NC(=O)CCCCCC(=O)N2CCN(CCCNc3ccc(S(=O)(=O)NC(=O)c4ccc(N5CCN(CC6=C(c7ccc(Cl)cc7)CC(C)(C)CC6)CC5)cc4Oc4cnc5[nH]ccc5c4)cc3S(=O)(=O)C(F)(F)F)CC2)C(C)(C)C)cc1 [I-102]	> 30000	
50 to 75	100 to 500	100 to 1000			C#Cc1ccc([C@H](C)NC(=O)[C@@H]2C[C@@H](O)CN2C(=O)[C@@H](NC(=O)CCCCCC(=O)N2CCN(CCCNc3ccc(S(=O)(=O)NC(=O)c4ccc(N5CCN(CC6=C(c7ccc(Cl)cc7)CC(C)(C)CC6)CC5)cc4Oc4cnc5[nH]ccc5c4)cc3S(=O)(=O)C(F)(F)F)CC2)C(C)(C)C)cc1F [I-105]	> 30000	
50 to 75	10 to 100	< 100			Cc1ncsc1-c1ccc([C@H](C)NC(=O)[C@@H]2C[C@@H](O)CN2C(=O)[C@@H](NC(=O)CCCCCC(=O)N2CCCN(CCCNc3ccc(S(=O)(=O)NC(=O)c4ccc(N5CCN(CC6=C(c7ccc(Cl)cc7)CC(C)(C)CC6)CC5)cc4Oc4cnc5[nH]ccc5c4)cc3S(=O)(=O)C(F)(F)F)CC2)C(C)(C)C)cc1 [I-106]	> 30000	
50 to 75	10 to 100	< 100			Cc1ncsc1-c1ccc([C@H](C)NC(=O)[C@@H]2C[C@@H](O)CN2C(=O)[C@@H](NC(=O)CCCCCCC(=O)N2CCN(CC[C@H](CSc3ccccc3)Nc3ccc(S(=O)(=O)NC(=O)c4ccc(N5CCC([C@@H](O)c6ccccc6-c6ccc(Cl)cc6)CC5)cc4)cc3S(=O)(=O)C(F)(F)F)CC2)C(C)(C)C)cc1 [I-120]	10000 to 30000	
> 75	< 10	< 100			Cc1ncsc1-c1ccc([C@H](C)NC(=O)[C@@H]2C[C@@H](O)CN2C(=O)[C@@H](NC(=O)CCCCCC(=O)N2CCN(CC[C@H](CSc3ccccc3)Nc3ccc(S(=O)(=O)NC(=O)c4ccc(N5CCN([C@@H](O)c6ccccc6-c6ccc(Cl)cc6)CC5)cc4)cc3S(=O)(=O)C(F)(F)F)CC2)C(C)(C)C)cc1 [I-121]	10000 to 30000	
< 50	500 to 1000	100 to 1000			Cc1ncsc1-c1ccc(CNC(=O)[C@@H]2C[C@@H](O)CN2C(=O)[C@@H](NC(=O)CCCCCCC(=O)N2CCN(C[C@]3(C)CCC(c4ccc(Cl)cc4)=C(CN4CCN(c5ccc(C(=O)NS(=O)(=O)c6ccc(NCCCN7CCOCC7)c(S(=O)(=O)C(F)(F)F)c6)c(Oc6cnc7[nH]ccc7c6)c5)CC4)C3)CC2)C(C)(C)C)cc1 [I-131]		> 30000
< 50	500 to 1000	100 to 1000			Cc1ncsc1-c1ccc([C@H](C)NC(=O)[C@@H]2C[C@@H](O)CN2C(=O)[C@@H](NC(=O)CCCCCC(=O)N2CCN(CCCNc3ccc(S(=O)(=O)NC(=O)c4ccc(N5CCN(CC6=C(c7ccc(Cl)cc7)CC(C)(C)CC6)CC5Oc5cnc6[nH]ccc6c5)cc4)cc3S(=O)(=O)C(F)(F)F)CC2)C(C)(C)C)cc1 (some centres unmarked) [I-133]	> 30000	
	500 to 1000		C (C (<50%))	100 to 1000	Cc1ncsc1-c1ccc(CNC(=O)[C@@H]2C[C@@H](O)CN2C(=O)[C@@H](NC(=O)CCCCCCC(=O)N2CCN(C[C@]3(C)CCC(c4ccc(Cl)cc4)=C(CN4CCN(c5ccc(C(=O)NS(=O)(=O)c6ccc(NCCCN7CCOCC7)c(S(=O)(=O)C(F)(F)F)c6)c(Oc6cnc7[nH]ccc7c6)c5)CC4)C3)CC2)C(C)(C)C)cc1 [I-134]		< 5000
